Test results: the SangsterLogP compilation

Assay: method code SF, from DOI: 10.1002/ps.2780140605
`C#CCC(O)(c1cccnc1)c1ccc(Cl)cc1Cl` (stereo not drawn) gave a logP of 2.29.
`C#CCC(O)(CC#C)c1cccnc1` gave a logP of 1.29.
Compound `C#CCC(O)(c1cccnc1)C1CCCCC1` (stereo not drawn) has a logP of 2.09.
With `C#CCC(O)(c1cccnc1)c1ccc(Cl)c(Cl)c1` (stereo not drawn) the logP was 2.42.
With `C#CCC(O)(c1ccc(F)cc1)c1cccnc1` (stereo not drawn) the logP was 1.78.
In the case of `C#CCC(O)(c1cccnc1)c1ccc2ccccc2c1` (stereo not drawn), the logP is reported as 2.14.
With `C#CCC(O)(c1ccc(C(C)C)cc1)c1cccnc1` (stereo not drawn) the logP was 2.16.

Assay: not given
`C#CCC(O)c1cccnc1` (stereo not drawn) gave a logP of 1.21.
